{
  "source": "patent US5703093A",
  "about": "“Compounds and methods for the treatment of cardiovascular, inflammatory and immune disorders” (Cytomed, Inc., priority 1995, dated 1997)",
  "key": {"[1]": {"system": "Leukotriene B4 Production in Ionophore-stimulated human whole blood", "experiment": "Inhibition of leukotriene B4 production in ionophore-stimulated human whole blood (HWB)", "assay_type": "cell-based", "details": "A23187-stimulated, LTB4 by EIA, repeat determinations", "method": "Another biological assay used to evaluate the ability of a compound to inhibit the enzyme 5-lipoxygenase is based on the classic pharmacological model of inflammation induced by inhibition of LTB4 from ionophore stimulated human whole blood.\nInhibition of Leukotriene B4 Production in Ionophore-stimulated human whole blood\nHuman blood was drawn into heparinized blood collection tubes, and aliquoted in 1 ml portions into 1.5 ml microfuge tubes. Test compound ([…]) of varying concentrations, dissolved in DMSO, was added to the blood sample and incubated for 15 minutes at 37° C. Calcium ionophore ([…], A23187) in DMSO was added to a final concentration of […], and the samples were incubated for 30 minutes at 37° C. Samples are then centrifuged at 1100×g (2500 rpm, H1000B rotor, in a Sorvall centrifuge) for 10 minutes at 4° C. Supernatant ([…]) was transferred into a 1.5 ml microfuge tube, […] of cold methanol added, and proteins precipitated on ice for 30 minutes. The samples were centrifuged at 110×g for 10 minutes at 4° C., and the supernatant assayed for LTB4 using a commercially available EIA kit (Cayman Chemical) according to manufacturer's specifications."}, "[2]": {"system": "whole blood 5-lipoxygenase (LTB4)", "experiment": "Ex-vivo mouse whole blood 5-lipoxygenase evaluation (ex vivo LTB4)", "assay_type": "in vivo", "details": "3 mg/k iv", "method": "Ex-vivo mouse whole blood 5-lipoxygenase evaluation\nCD-1 female mice, weighing 18-25 grams, and CD female rats, weighing 150-230 grams, were obtained from Charles River Labs. Test compounds were dissolved in 0.5% DMSO in 0.9% NaCl for administration in mice (0.5 mg/ml) and in an alcohol vehicle (2% benzyl alcohol, 1% ethanol, 40% PEG 300, 10% propylene glycol, 47% of 5% dextrose and 3.5% pluronic F-68 in DiH2 O) for use in rats (5 mg/ml). […] Heparinized whole blood (0.3 ml) was added into 1.5 ml Eppendorf centrifuge tube containing […] of 2 mM calcium ionophore A23187 (the final concentration of A23187 was […]). The sample was incubated for 30 minutes in a water bath at 37° C., and then centrifuged for 2 minutes. The plasma was diluted (x120) and assayed for LTB4 using EIA."}, "[3]": {"system": "whole blood 5-lipoxygenase (LTB4)", "experiment": "Ex-vivo rat whole blood 5-lipoxygenase evaluation (ex vivo LTB4)", "assay_type": "in vivo"}, "[4]": {"biological_target": "T1, Cytosol 5-Lipoxygenase of Rat Basophile Leukemia Cells (Rattus norvegicus, UniProt P12527)", "T1 construct": "The supernatant was then removed and stored in aliquots; endogenous in cells; host or cells: RBL-2H3 (rat basophilic leukemia) cells, sonicate, 20,000 x g supernatant", "T1 sequence (P12527 1-673)": "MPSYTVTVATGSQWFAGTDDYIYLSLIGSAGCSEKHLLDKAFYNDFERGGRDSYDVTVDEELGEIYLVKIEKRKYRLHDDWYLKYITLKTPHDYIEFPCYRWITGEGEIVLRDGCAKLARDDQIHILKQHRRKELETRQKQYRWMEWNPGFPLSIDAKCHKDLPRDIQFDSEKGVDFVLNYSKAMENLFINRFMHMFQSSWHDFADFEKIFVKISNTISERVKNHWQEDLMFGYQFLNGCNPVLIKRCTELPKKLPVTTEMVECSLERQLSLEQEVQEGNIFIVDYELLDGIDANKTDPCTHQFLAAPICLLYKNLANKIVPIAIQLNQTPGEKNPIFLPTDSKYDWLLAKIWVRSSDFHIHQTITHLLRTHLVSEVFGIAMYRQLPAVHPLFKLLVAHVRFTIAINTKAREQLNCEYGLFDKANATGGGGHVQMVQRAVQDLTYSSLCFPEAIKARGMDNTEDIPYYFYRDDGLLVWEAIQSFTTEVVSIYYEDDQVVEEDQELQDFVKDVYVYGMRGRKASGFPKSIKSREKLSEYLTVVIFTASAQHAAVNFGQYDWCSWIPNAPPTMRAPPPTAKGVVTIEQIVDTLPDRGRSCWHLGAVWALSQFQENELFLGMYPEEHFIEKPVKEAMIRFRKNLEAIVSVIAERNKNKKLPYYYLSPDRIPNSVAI", "experiment": "Effect on cytosol 5-lipoxygenase of rat basophile leukemia (RBL-2H3) cells", "assay_type": "biochemical", "details": "RBL-2H3 cytosol preparation, [14C]arachidonic acid; repeat determinations", "method": "A wide variety of biological assays have also been used to evaluate the ability of a compound to inhibit the enzyme 5-lipoxygenase. For example, a cytosol 5-lipoxygenase of rat basophilic leukemia cells (RBL) has been widely utilized in studies on leukotriene biosynthesis. Compounds that inhibit 5-lipoxygenase decrease the levels of leukotrienes.\nEffect of Compounds on Cytosol 5-Lipoxygenase of Rat Basophile Leukemia Cells\nRBL-2H3 cells were grown to confluence in tissue culture flasks according to Carter et al. (J PharmExp Ther 256(3); 929-937, 1991). The cells were harvested and washed five times in calcium-and magnesium-free D-PBS. The cells were suspended at 2×10^7 /ml in 10 mM BES, 10 mM PIPES, pH 6.8, 1 mM EDTA, and then sonicated. […]\nThe 5-LO activity in the RBL-2H3 preparation was determined as follows: 0.1 ml reactions consisting of 0.7 mM CaCl2, 100 mM NaCl, 1 mM EDTA, 10 mM BES, 10 MM PIPES, pH 7.4, varying concentrations of test compound dissolved in DMSO (7.5% DMSO final in assay), and an amount of the RBL-2H3 preparation that will convert 15% of the arachidonic acid substrate mixture to oxygenated products (determined experimentally for each RBL-2H3 preparation), were incubated for 20 minutes at room temperature. […] The film was developed, scanned using a densitometer, and the peak areas of arachidonic acid and its product(s) are calculated. […]"}, "[5]": {"biological_target": "PAF (Homo sapiens, UniProt P25105)", "sequence (P25105 whole entry)": "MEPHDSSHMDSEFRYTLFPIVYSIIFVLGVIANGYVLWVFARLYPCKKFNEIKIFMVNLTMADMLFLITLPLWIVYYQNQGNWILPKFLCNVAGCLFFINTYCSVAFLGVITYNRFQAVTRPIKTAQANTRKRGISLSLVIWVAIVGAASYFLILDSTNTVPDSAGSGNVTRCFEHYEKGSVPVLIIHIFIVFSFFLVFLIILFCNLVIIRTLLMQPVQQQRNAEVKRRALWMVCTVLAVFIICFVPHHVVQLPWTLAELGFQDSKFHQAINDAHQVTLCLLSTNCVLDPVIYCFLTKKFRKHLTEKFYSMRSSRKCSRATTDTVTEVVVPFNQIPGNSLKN", "details": "reported in the literature; cited from earlier work"}, "[6]": {"biological_target": "T2, 5-lipoxygenase (Homo sapiens, UniProt P09917)", "T2 sequence (P09917 1-674)": "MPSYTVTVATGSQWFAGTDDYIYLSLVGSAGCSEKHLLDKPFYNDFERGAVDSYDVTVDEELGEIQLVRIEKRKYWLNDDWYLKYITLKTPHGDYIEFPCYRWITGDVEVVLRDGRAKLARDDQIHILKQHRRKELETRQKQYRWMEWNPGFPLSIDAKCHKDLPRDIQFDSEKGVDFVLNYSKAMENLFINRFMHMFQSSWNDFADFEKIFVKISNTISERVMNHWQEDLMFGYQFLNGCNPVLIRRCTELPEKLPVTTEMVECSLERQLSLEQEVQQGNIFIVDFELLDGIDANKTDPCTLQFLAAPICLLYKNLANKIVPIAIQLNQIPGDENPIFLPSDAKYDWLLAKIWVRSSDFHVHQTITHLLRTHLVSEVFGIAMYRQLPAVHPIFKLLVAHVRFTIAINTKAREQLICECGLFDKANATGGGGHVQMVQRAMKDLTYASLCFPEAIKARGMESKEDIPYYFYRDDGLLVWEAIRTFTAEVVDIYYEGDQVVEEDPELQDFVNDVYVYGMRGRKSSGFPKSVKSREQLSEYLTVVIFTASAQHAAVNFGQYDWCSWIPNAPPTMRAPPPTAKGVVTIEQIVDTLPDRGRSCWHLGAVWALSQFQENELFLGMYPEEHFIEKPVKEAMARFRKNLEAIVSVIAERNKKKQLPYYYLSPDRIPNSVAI", "details": "reported in the literature; cited from earlier work"}},
  "note": "pIC50: −log10 of the molar value. “And” between values parts separate entries of the source, which are not always exact repeats. Equal entries are not always repeated.",
  "data": [
    {"smiles": "NC(=O)N(O)CCCC[C@@H]1CC[C@@H](COc2ccc(F)cc2)O1", "values": [
      {"measurement": "pIC50", "setting": "[1]; Homo sapiens", "value": 6.82},
      {"measurement": "ex vivo LTB4 % inh.", "setting": "[2]; 15 minutes", "value": 89, "unit": "%"},
      {"measurement": "ex vivo LTB4 % inh.", "setting": "[2]; 60 minutes", "value": 22, "unit": "%"},
      {"measurement": "ex vivo LTB4 % inh.", "setting": "[2]; 180 minutes", "value": 36, "unit": "%"},
      {"measurement": "ex vivo LTB4 % inh.", "setting": "[3]; 2 mg/k po, 900 minutes", "value": 34, "unit": "%"},
      {"measurement": "ex vivo LTB4 % inh.", "setting": "[3]; 5 mg/k po, 900 minutes", "value": 34, "unit": "%"}
    ]},
    {"smiles": "NC(=O)N(O)CCC#C[C@@H]1CC[C@@H](COc2ccc(F)cc2)O1", "values": [
      {"measurement": "ex vivo LTB4 % inh.", "setting": "[2]; 15 minutes", "value": 94, "unit": "%"},
      {"measurement": "ex vivo LTB4 % inh.", "setting": "[2]; 60 minutes", "value": 86, "unit": "%"},
      {"measurement": "ex vivo LTB4 % inh.", "setting": "[2]; 180 minutes", "value": 44, "unit": "%"},
      {"measurement": "ex vivo LTB4 % inh.", "setting": "[3]; 2 mg/k po, 60 minutes", "value": 93, "unit": "%"},
      {"measurement": "ex vivo LTB4 % inh.", "setting": "[3]; 2 mg/k po, 360 minutes", "value": 5, "unit": "%"},
      {"measurement": "ex vivo LTB4 % inh.", "setting": "[3]; 5 mg/k po, 900 minutes", "value": 29, "unit": "%"}
    ]},
    {"smiles": "NC(=O)N(O)CCC#C[C@H]1CC[C@@H](COc2ccc(F)cc2)O1", "values": [
      {"measurement": "pIC50", "setting": "[4]", "value": "5.70 and 5.90 and 5.81 and 6.06"},
      {"measurement": "pIC50", "setting": "[1]", "value": 6.28},
      {"measurement": "pIC50", "setting": "[1]; Homo sapiens", "value": 6.37},
      {"measurement": "ex vivo LTB4 % inh.", "setting": "[3]; 2 mg/k po, 60 minutes", "value": 86, "unit": "%"},
      {"measurement": "ex vivo LTB4 % inh.", "setting": "[3]; 2 mg/k po, 360 minutes", "value": 63, "unit": "%"}
    ]},
    {"smiles": "NC(=O)N(O)CCC#C[C@H]1CC[C@H](COc2ccc(F)cc2)O1", "values": [
      {"measurement": "pIC50", "setting": "[4]", "value": "5.87 and 5.86"},
      {"measurement": "pIC50", "setting": "[1]", "value": 6.57},
      {"measurement": "pIC50", "setting": "[1]; Homo sapiens", "value": 6.82}
    ]},
    {"smiles": "NC(=O)N(O)CCC#C[C@@H]1CC[C@H](COc2ccc(F)cc2)O1", "values": [
      {"measurement": "pIC50", "setting": "[1]; Homo sapiens", "value": 6.74}
    ]},
    {"smiles": "COc1cc([C@H]2CC[C@H](c3cc(OC)c(OC)c(OC)c3)S2)cc(OC)c1OC", "note": "(relative stereo) [L-653,150, trans-2,5-bis-(3,4,5-trimethoxyphenyl)tetrahydrothiophene]", "values": [
      {"measurement": "PAF antagonism", "setting": "[5]", "value": "potent PAF antagonist"},
      {"measurement": "inhibition of 5-lipoxygenase", "setting": "[6]", "value": "moderate inhibitor of 5-lipoxygenase"}
    ]},
    {"smiles": "NC(=O)N(O)CCCC[C@H]1CC[C@H](COc2ccc(F)cc2)O1", "note": "(single isomer, unassigned)", "values": [
      {"measurement": "pIC50", "setting": "[1]; Homo sapiens", "value": 6.38}
    ]}
  ]
}
